Data reported in US9067937B2 (priority 2012, dated 2015).
Counter-ions that a name gives are not always drawn.

Tests used:
[1] = system: HT1197 cells; assay: Cell-based assay, anti-proliferative activity, MELK-negative control (Cell Counting Kit-8, 72 hours); design: species or system human; conditions: Homo sapiens, HT1197, 72 h, read-out: IC50 (μM) (HTll97)
Method: (§1) 100 micro-L of cell suspension was seeded onto 96-well microtiter plate (ViewPlate-96FTC, PerkinElmer). The initial cell concentration of 22Rv1, T47D, A549, DU4475, and HT1197 were 3,000 cells/well, 2,000 cells/well and 2,500 cells/well, respectively. Cellular growth was determined using Cell Counting Kit-8 (DOJINDO) at 72 hours after the exposure of the candidate inhibitors. […] Accurate IC50 values were calculated as described previously.

[2] = system: A549 cells; assay: Cell-based assay, anti-proliferative activity (Cell Counting Kit-8, 72 hours); design: species or system human; conditions: Homo sapiens, A549, 72 h, read-out: IC50 (μM) (A549)
Method: as §1, with “Active candidate inhibitors against MELK were evaluated for their target-specific cytotoxicity using 22Rv1, T47D, A549, DU4475 and HT-1197 cells was used for negative control. 100” for “100”

[3] = system: DU4475 cells; assay: as above; design: species or system human; conditions: Homo sapiens, DU-4475, 72 h, read-out: IC50 (μM) (DU4475)
Method: as §1, with “Active candidate inhibitors against MELK were evaluated for their target-specific cytotoxicity using 22Rv1, T47D, A549, DU4475 and HT-1197 cells was used for negative control. 100” for “100”

[4] = system: 22Rv1 cells; assay: as above; design: species or system human; conditions: Homo sapiens, 22Rv1, 72 h, read-out: IC50 (μM) (22Rvl)
Method: as §1, with “Active candidate inhibitors against MELK were evaluated for their target-specific cytotoxicity using 22Rv1, T47D, A549, DU4475 and HT-1197 cells was used for negative control. 100” for “100”

[5] = system: T47D cells; assay: as above; design: species or system human; conditions: Homo sapiens, T47D, 72 h, read-out: IC50 (μM) (T47D)
Method: as §1, with “Active candidate inhibitors against MELK were evaluated for their target-specific cytotoxicity using 22Rv1, T47D, A549, DU4475 and HT-1197 cells was used for negative control. 100” for “100”

[6] = molecular target: MELK (Homo sapiens, UniProt Q14680); assay: Kinase assay (IMAP fluorescence polarization, FITC-labeled histone H3 peptide); format: biochemical; conditions: 50 micro-M ATP
Sequence of MELK (Q14680 whole entry, looked up): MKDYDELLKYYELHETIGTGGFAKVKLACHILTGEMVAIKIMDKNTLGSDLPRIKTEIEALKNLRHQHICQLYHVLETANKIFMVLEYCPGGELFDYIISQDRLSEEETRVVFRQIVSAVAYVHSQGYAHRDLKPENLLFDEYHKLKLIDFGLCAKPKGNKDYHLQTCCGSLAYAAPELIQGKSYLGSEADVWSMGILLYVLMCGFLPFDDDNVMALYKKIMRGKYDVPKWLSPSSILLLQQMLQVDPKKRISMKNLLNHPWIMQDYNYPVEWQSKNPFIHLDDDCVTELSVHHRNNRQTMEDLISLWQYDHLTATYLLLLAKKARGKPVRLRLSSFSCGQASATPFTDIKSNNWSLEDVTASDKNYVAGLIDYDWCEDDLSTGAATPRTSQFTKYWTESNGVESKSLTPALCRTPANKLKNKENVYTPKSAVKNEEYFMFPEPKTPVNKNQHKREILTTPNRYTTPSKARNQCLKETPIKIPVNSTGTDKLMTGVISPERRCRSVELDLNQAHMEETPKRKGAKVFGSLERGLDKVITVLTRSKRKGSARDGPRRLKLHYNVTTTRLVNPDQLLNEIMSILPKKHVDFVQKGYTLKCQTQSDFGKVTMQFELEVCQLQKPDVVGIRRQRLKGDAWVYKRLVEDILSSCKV
Method: MELK activity was determined in the presence or absence of compounds using fluorescein isothiocyanate-labeled (FITC-labeled) histone H3 peptide as a substrate. […] The serially diluted compounds, 0.8 ng/micro-L […] (Carna Biosciences) and 100 nM FITC-labeled histone H3 peptide were reacted in a reaction buffer (20 mM HEPES, 0.01% Tween-20, 0.3 mM MgCl2, 2 mM dithiothreitol, 50 micro-M ATP, pH 7.4) at room temperature for 1 hour. The reaction was stopped by the addition of three fold assay volume of progressive binding solution. […] IC50 values were calculated by nonlinear four parameter fit using SigmaPlot, version 10.0 (Systat Software, Inc.).

Row | SMILES | IC50 [1] | IC50 [2] | IC50 [3] | IC50 [4] | IC50 [5] | IC50 [6]
1 | CN(C)C[C@H]1CC[C@H](Nc2c(S(C)(=O)=O)cnc3ccc(-c4cc(Cl)c(O)c(Cl)c4)nc23)CC1 [Example 12, 2,6-Dichloro-4-(8-{trans-4-[(dimethylamino)methyl]cyclohexylamino}-7-(methylsulfonyl)-1,5-naphthyridin-2-yl)phenol dihydrochloride] | 0.46 µM | 0.053 µM | 0.0045 µM | 0.019 µM | 0.019 µM | 0.001 µM
2 | CN(C)C[C@H]1CC[C@H](Nc2c(S(C)(=O)=O)cnc3ccc(-c4cc(F)c(O)c(Cl)c4)nc23)CC1 [Example 13, 6-(3-Chloro-5-fluoro-4-hydroxyphenyl)-4-({trans-4-[(dimethylamino)methyl]cyclohexyl}-amino)-3-methylsulfonyl-1,5-naphthyridine dihydrochloride] | 0.32 µM | 0.073 µM | 0.0068 µM | 0.019 µM | 0.013 µM | 0.0014 µM
3 | COc1cc(-c2ccc3ncc(S(C)(=O)=O)c(N[C@H]4CC[C@H](CN(C)C)CC4)c3n2)cc(Cl)c1O [Example 14, 6-(3-Chloro-4-hydroxy-5-methoxyphenyl)-4-{trans-4-[(dimethylamino)methyl]-cyclohexylamino}-3-methylsulfonyl-1,5-naphthyridine-dihydrochloride] | 0.14 µM | 0.033 µM | 0.0096 µM | 0.05 µM | 0.027 µM | 0.0009 µM
4 | CN(C)[C@H]1CC[C@H](Nc2c(S(C)(=O)=O)cnc3ccc(-c4cc(Cl)c(O)c(Cl)c4)nc23)CC1 [Example 15, 2,6-Dichloro-4-{8-[trans-4-(dimethylamino)cyclohexylamino]-7-(methylsulfonyl)-1,5-naphthyridin-2-yl}phenol dihydrochloride] | 2.2 µM | 0.092 µM | 0.0027 µM | 0.026 µM | 0.018 µM | 0.0005 µM
5 | CN(C)Cc1ccc(Nc2c(S(C)(=O)=O)cnc3ccc(-c4cc(Cl)c(O)c(Cl)c4)nc23)cc1 [Example 16, 2,6-Dichloro-4-(8-{4-[(dimethylamino)methyl]phenylamino}-7-(methylsulfonyl)-1,5-naphthyridin-2-yl)phenol dihydrochloride] | 4.4 µM | 0.47 µM | 0.031 µM | 0.17 µM | 0.078 µM | 0.0028 µM
6 | CN(C)Cc1ccc(Nc2c(S(C)(=O)=O)cnc3ccc(-c4cc(F)c(O)c(Cl)c4)nc23)cc1 [Example 17, 2-Chloro-4-(8-{4-[(dimethylamino)methyl]phenylamino}-7-(methylsulfonyl)-1,5-naphthyridin-2-yl)-6-fluorophenol dihydrochloride] | 6.6 µM | 0.83 µM | 0.064 µM | 0.33 µM | 0.13 µM | 0.0081 µM
7 | COc1cc(-c2ccc3ncc(S(C)(=O)=O)c(Nc4ccc(CN(C)C)cc4)c3n2)cc(Cl)c1O [Example 18, 2-Chloro-4-(8-{4-[(dimethylamino)methyl]phenylamino}-7-(methylsulfonyl)-1,5-naphthyridin-2-yl)-6-methoxyphenol dihydrochloride] | 3.8 µM | 0.69 µM | 0.31 µM | 1 µM | 0.32 µM | 0.005 µM
8 | CC(=O)c1cnc2ccc(-c3cc(Cl)c(O)c(Cl)c3)nc2c1Nc1cccc(CCN2CCCC2)c1 [Example 19, 1-[6-(3,5-Dichloro-4-hydroxyphenyl)-4-{3-[2-(pyrrolidin-1-yl)ethyl]phenylamino}-1,5-naphthyridin-3-yl]ethanone dihydrochloride] | 7 µM | 0.14 µM | 0.11 µM | 0.63 µM | 0.59 µM | 0.032 µM
9 | CC(=O)c1cnc2ccc(-c3cc(F)c(O)c(Cl)c3)nc2c1Nc1cccc(CCN2CCCC2)c1 [Example 20, 1-[6-(3-Chloro-5-fluoro-4-hydroxyphenyl)-4-{3-[2-(pyrrolidin-1-yl)ethyl]phenylamino}-1,5-naphthyridin-3-yl]ethanone dihydrochloride] | 4.8 µM | 0.31 µM | 0.21 µM | 0.81 µM | 0.5 µM | 0.14 µM
10 | CC(=O)c1cnc2ccc(-c3cc(Cl)c(O)c(Cl)c3)nc2c1Nc1ccc(OCCN(C)C)nc1 [Example 21, 1-[6-(3,5-Dichloro-4-hydroxyphenyl)-4-{6-[2-(dimethylamino)ethoxy]pyridin-3-ylamino}-1,5-naphthyridin-3-yl)ethanone dihydrochloride] | 2.3 µM | 0.21 µM | 0.096 µM | 0.27 µM | 0.1 µM | 0.0046 µM
11 | CC(=O)c1cnc2ccc(-c3cc(F)c(O)c(Cl)c3)nc2c1Nc1ccc(OCCN(C)C)nc1 [Example 22, 1-[6-(3-Chloro-5-fluoro-4-hydroxyphenyl)-4-{6-[2-(dimethylamino)ethoxy]pyridin-3-ylamino}-1,5-naphthyridin-3-yl)ethanone dihydrochloride] | 3.5 µM | 0.29 µM | 0.31 µM | 0.35 µM | 0.1 µM | 0.015 µM
12 | COc1cc(-c2ccc3ncc(C(C)=O)c(Nc4ccc(OCCN(C)C)nc4)c3n2)cc(Cl)c1O [Example 23, 1-[6-(3-Chloro-4-hydroxy-5-methoxyphenyl)-4-{6-[2-(dimethylamino)ethoxy]pyridin-3-ylamino}-1,5-naphthyridin-3-yl]ethanone dihydrochloride] | 8.9 µM | 0.47 µM | 0.41 µM | 1.3 µM | 0.38 µM | 0.0089 µM
13 | CN(C)CCOc1ccc(Nc2c(S(C)(=O)=O)cnc3ccc(-c4cc(Cl)c(O)c(Cl)c4)nc23)cn1 [Example 24, 2,6-Dichloro-4-(8-{6-[2-(dimethylamino)ethoxy]pyridin-3-ylamino}-7-(methylsulfonyl)-1,5-naphthyridin-2-yl)phenol hydrochloride] | 15 µM | 5.1 µM | 0.38 µM | 1.8 µM | 0.58 µM | 0.0053 µM
14 | CN(C)CCOc1ccc(Nc2c(S(C)(=O)=O)cnc3ccc(-c4cc(F)c(O)c(Cl)c4)nc23)cn1 [Example 25, 2-Chloro-4-(8-{6-[2-(dimethylamino)ethoxy]pyridin-3-ylamino}-7-(methylsulfonyl)-1,5-naphthyridin-2-yl)-6-fluorophenol dihydrochloride] | 21 µM | 5.9 µM | 0.74 µM | 2.8 µM | 0.7 µM | 0.019 µM
15 | COc1cc(-c2ccc3ncc(S(C)(=O)=O)c(Nc4ccc(OCCN(C)C)nc4)c3n2)cc(Cl)c1O [Example 26, 2-Chloro-4-(8-(6-(2-(dimethylamino)-ethoxy)pyridin-3-ylamino)-7-(methylsulfonyl)-1,5-naphthyridin-2-yl)-6-methoxyphenol dihydrochloride] | 15 µM | 3.1 µM | 1.6 µM | 4.1 µM | 1 µM | 0.01 µM
16 | CC(=O)c1cnc2ccc(-c3cc(Cl)c(O)c(Cl)c3)nc2c1NCC1CCN(C)CC1 [Example 27, 1-(6-(3,5-Dichloro-4-hydroxyphenyl)-4-((1-methylpiperidin-4-yl)methylamino)-1,5-naphthyridin-3-yl)ethanone dihydrochloride] | 2 µM | 0.11 µM | 0.1 µM | 0.1 µM | 0.079 µM | 0.0007 µM
17 | CC(=O)c1cnc2ccc(-c3cc(Cl)c(O)c(Cl)c3)nc2c1Nc1ccc(CCN(C)C)cc1 [Example 29, 1-[6-(3,5-Dichloro-4-hydroxyphenyl)-4-{4-[2-(dimethylamino)ethyl]phenylamino}-1,5-naphthyridin-3-yl)ethanone dihydrochloride] | 0.68 µM | 0.11 µM | 0.028 µM | 0.084 µM | 0.085 µM | 0.0026 µM
18 | CC(=O)c1cnc2ccc(-c3cc(F)c(O)c(Cl)c3)nc2c1Nc1ccc(CCN(C)C)cc1 [Example 30, 1-[6-(3-Chloro-5-fluoro-4-hydroxyphenyl)-4-{4-[2-(dimethylamino)ethyl]phenylamino}-1,5-naphthyridin-3-yl)ethanone dihydrochloride] | 1.2 µM | 0.14 µM | 0.041 µM | 0.17 µM | 0.11 µM | 0.0059 µM
